Values after ≈ are worked out from the molar mass of the structure shown.

A short description of the first data set: Solubility of the compound at pH 7.4. Type of data set: physicochemical. The following applies: buffer.
As to `O=C(Nc1ccc(-c2nnc(-c3ccccc3)o2)cc1)c1ccccc1`, the concentration in solution (solubility) came to 5.89 µg/mL (≈ 17.3 µM).
On the same count and under the same terms, then `O=C(Nc1ccc(-c2nc(-c3ccccc3)no2)cc1)c1ccccc1`, with 6.12 µg/mL (≈ 17.9 µM); and `O=C(Nc1ccc(-c2nnc(-c3ccccc3)o2)cc1)c1ccc(F)cc1`, with 5 µg/mL (≈ 13.9 µM).
As to `O=C(Nc1ccc(-c2nc(-c3ccccc3)no2)cc1)c1ccc(F)cc1`, the solubility – broadly, the concentration that dissolves in the medium under given conditions – came to 5.23 µg/mL (≈ 14.6 µM).

The nature of a further data set: Dissociation constant, pKa of the compound. The format is physicochemical.
Conditions: not given
For the molecule `c1cnccn1` [PYRAZINE], the pKa – broadly, the negative logarithm of the acid dissociation constant – was 0.7.

A short description of another data set: Solubility of the compound. Type of data set: physicochemical.
Conditions: not given
For `C=CCCCCCC`, the solubility worked out at 3 µg/mL (≈ 26.7 µM).
Turning to `Oc1cccc2nccnc12`, the concentration in solution (solubility) came to 6600 µg/mL (≈ 45200 µM).
As to `Oc1cccc2cncnc12`, the solubility is 1300 µg/mL (≈ 8900 µM).
`Oc1cccc2ccnnc12`: the concentration in solution (solubility) came to 600 µg/mL (≈ 4110 µM).
With `C1CCCCCCC1` [CYCLOOCTANE], the solubility is 7 µg/mL (≈ 62.4 µM).
Molecule `c1ccc2cnccc2c1` [ISOQUINOLINE] had a solubility of 5660 µg/mL (≈ 43800 µM).
The molecule `CCCCCCCC` [OCTANE] registered a solubility of 1 µg/mL (≈ 8.75 µM).

The nature of the next data set: physchem. The following applies: octanol/water.
Description: Lipophilicity, log P of the compound
As to `c1ccc2c(c1)CCNC2` [1,2,3,4-TETRAHYDROISOQUINOLINE], the logP (commonly the decadic logarithm of the partition coefficient of the neutral form, usually between octanol and water) stood at 1.71.
The molecule `C1CCCCCCC1` [CYCLOOCTANE] showed a logP of 4.07.
`CCCCCCCC` [OCTANE] yielded a log partition coefficient (logP) of 4.93.
`c1cncnc1` [PYRIMIDINE] gave a log partition coefficient (logP) of -0.44.

The next data set can be described thus: physchem. The conditions noted are these: water.
Description: Solubility of the compound in water at 35 degC
Molecule `CC(C)CCC[C@@H](C)[C@H]1CC[C@H]2[C@@H]3CC[C@H]4C[C@@H](O)CC[C@]4(C)[C@H]3CC[C@]12C` gave a solubility of 9 ng/mL (≈ 0.0232 µM).

The record behind these values is ChEMBL document CHEMBL4177661, “Improvement in aqueous solubility achieved via small molecular changes” (Bioorg Med Chem Lett, 2017).
